Test results reported in US12208108B2, “Drug targets of delayed aging and human brain diseases” (Texas Tech University System, priority 2016, dated 2025).

Assays:
SHSY5Y cells [1] = experiment: Cytochrome oxidase activity; format: cell-based, Human
Procedure: Cytochrome oxidase activity. Cytochrome oxidase activity was measured in the mitochondria isolated from SHSY5Y cells of control and experimental treatments (n=4), as described in Manczak et al.^33. Enzyme activity was assayed spectrophotometrically using a Sigma Kit (Sigma-Aldrich) following manufacturer's instructions.

SHSY5Y cells [2] = experiment: Immunofluorescence analysis of Drp1, synaptophysin and PSD95; format: cell-based, Human
Procedure: Immunofluorescence analysis of Drp1, synaptophysin and PSD95. To determine the effect of Aβ and DDQ on Drp1, synaptophysin and PSD95 levels and localizations, immunofluorescence analysis was performed in cells treated as shown in FIG. 7.
Immunofluorescence analysis. To study immune-reactivity of proteins of interest, cells were grown on coverslips using regular cell culture medium and treated as shown in strategy FIG. 3 and performed immunofluorescence analysis using the antibodies in these treated and untreated cells as described by Manzcak et al. Cells were washed with warm PBS, fixed in freshly prepared 4% paraformaldehyde in PBS for 10 min, and then washed with PBS and permeabilized with 0.1% Triton-X100 in PBS. They were blocked with 1% blocking solution (Invitrogen) for 1 hr at room temperature. All neurons were incubated overnight with primary antibodies. The neurons were incubated with appropriate secondary antibodies. The cells were washed neurons 3 times with PBS, and slides were mounted. Photographs were taken with a multiphoton laser scanning microscope system (ZeissMeta LSM510). To quantify the immunoreactivity of proteins of interest, for each treatment 10-15 photographs were taken at ×20 magnification.

SHSY5Y cells [3] = experiment: ATP levels in isolated mitochondria; format: cell-based, Human
Procedure: ATP levels. ATP levels were measured in mitochondria isolated from SHSY5Y neurons of control and experimental treatments (n=4) using the ATP determination kit (Molecular Probes) as described in Manczak et al..

SHSY5Y cells [4] = experiment: Cell viability test (MTT assay); format: cell-based, Human
Procedure: Cell viability test (MTT assay). Mitochondrial respiration, an indicator of cell viability, was assessed in the SHSY5Y cells from control and experimental treatments (n=4), using the mitochondrial-dependent reduction of 3-(4,5-dimethyl-thiazol-2-yl)-2,5-diphenyl-tetrazolium bromide (MTT) to formazan as described in Manczak et al..

SHSY5Y cells [5] = experiment: Lipid peroxidation assay (HNE); format: cell-based, Human
Procedure: Lipid peroxidation assay. Lipid peroxidates are unstable indicators of oxidative stress in neurons. 4-hydroxy-2-nonenol (HNE) is the final product of lipid peroxidation that was measured in the cell lysates from SHSY5Y cells of control and experimental treatments (n=4), using an HNE-His ELISA Kit (Cell BioLabs, Inc., San Diego, Calif.) as described in Manczak et al..

mutant APPSwe/Ind cells = experiment: Sandwich ELISA of Aβ40 and Aβ42; format: cell-based, mouse; settings: DDQ treated vs DDQ untreated mutant APPSwe/Ind cells, protein lysates
Source text: FIGS. 9A and 9B show sandwich ELISA analysis of Aβ40 and 42 in mutant APPSwe/Ind cells treated and untreated with DDQ. The inventors performed sandwich ELISA using protein lysates mutant APP cells treated and untreated with DDQ.
DDQ reduces soluble Aβ42 in mutant APPSwe/Ind cells treated with DDQ. To determine whether DDQ reduces Aβ levels, the inventors performed sandwich ELISA using protein lysates of mutant APPSwe/Ind cells treated with DDQ. […] These observations indicate that DDQ reduces Aβ42 levels in mutant APPSwe/Ind cells.
Mutant APPSwe/Ind cells: The inventors purchased mutant APPSwe cDNA clone (pCAX-APPSwe/Ind) from Addgene—https://www.addgene.org and verified expression of mutant APP APPSwe/Ind cDNA and further sub-cloned into a mammalian expression vector (Arubala P. Reddy—unpublished observations). The inventors transfected mutant APPSwe/Ind cDNA into mouse neuroblastoma (N2a) cells for 24 hrs and after transfection, cells were treated with DDQ (250 nM) for 24 hrs. The inventors harvested mutant APPSwe/Ind cells treated and untreated with DDQ and prepared protein lysates and performed co-immunoprecipitation using Aβ (6E10) antibody and conducted immunoblotting analysis with 6E10 and Drp1 antibodies.

GTPase-Drp1 = target: T1, GTPase-Drp1 (Homo sapiens, UniProt O00429); experiment: GTPase-Drp1 activity from Drp1 IP elutes; format: cell-based
T1 construct: endogenous in cells; host or cells: SHSY5Y human neuroblastoma cells
Procedure: GTPase-Drp1 activity: To determine whether Aβ affects GTPase-Drp1 activity in cells that treated with Aβ incubation, the inventors measured GTPase-Drp1 activity from Drp1 IP elutes of all cell treatments.

[6] = Aβ + DDQ (Aβ1-42 20 μM 6 hrs, then DDQ 24 hrs) vs untreated cells
[7] = Aβ + DDQ (Aβ1-42 6 hrs, then DDQ 24 hrs) vs Aβ incubated cells
[8] = DDQ 250 nM 24 hrs vs untreated cells
[9] = DDQ + Aβ (DDQ 24 hrs, then Aβ1-42 6 hrs) vs Aβ incubated cells
[10] = DDQ + Aβ (DDQ 24 hrs, then Aβ1-42 6 hrs) vs untreated cells
[11] = Aβ + DDQ (Aβ1-42 6 hrs, then DDQ 24 hrs) vs Aβ treated cells
[12] = DDQ + Aβ (DDQ 24 hrs, then Aβ1-42 6 hrs) vs Aβ treated cells

T1 sequence (O00429 whole entry): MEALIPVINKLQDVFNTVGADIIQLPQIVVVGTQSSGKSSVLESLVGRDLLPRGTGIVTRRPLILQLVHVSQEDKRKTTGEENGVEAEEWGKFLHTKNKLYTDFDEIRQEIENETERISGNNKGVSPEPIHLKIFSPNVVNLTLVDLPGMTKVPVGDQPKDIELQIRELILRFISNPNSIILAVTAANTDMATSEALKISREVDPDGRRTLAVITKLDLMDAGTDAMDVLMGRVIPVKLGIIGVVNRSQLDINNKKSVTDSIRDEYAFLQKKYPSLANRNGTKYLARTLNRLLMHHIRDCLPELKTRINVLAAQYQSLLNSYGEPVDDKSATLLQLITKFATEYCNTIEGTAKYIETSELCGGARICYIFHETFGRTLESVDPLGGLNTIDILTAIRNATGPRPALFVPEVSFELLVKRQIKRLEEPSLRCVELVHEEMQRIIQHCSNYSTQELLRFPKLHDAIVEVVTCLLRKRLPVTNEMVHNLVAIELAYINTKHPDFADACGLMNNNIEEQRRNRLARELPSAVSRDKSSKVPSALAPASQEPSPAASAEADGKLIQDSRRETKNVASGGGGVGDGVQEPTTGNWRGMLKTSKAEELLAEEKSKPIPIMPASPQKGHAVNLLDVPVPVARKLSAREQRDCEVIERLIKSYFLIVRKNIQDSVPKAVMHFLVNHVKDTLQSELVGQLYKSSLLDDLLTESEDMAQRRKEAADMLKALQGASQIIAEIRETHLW

CCOP(=O)(OCC)C(NCCc1ccc(O)c(O)c1)c1ccnc2ccccc12 (centres unmarked) [DDQ, diethyl(3,4-dihydroxyphenethylamine)(quinolin-4-yl)methylphosphonate]
cytochrome oxidase activity (SHSY5Y cells [1]; [6]): unchanged | cytochrome oxidase activity (SHSY5Y cells [1]; [7]): increased | cytochrome oxidase activity (SHSY5Y cells [1]; [8]): significantly increased levels | cytochrome oxidase activity (SHSY5Y cells [1]; [9]): increased | cytochrome oxidase activity (SHSY5Y cells [1]; [10]): unchanged | Drp1 levels (immunofluorescence) (SHSY5Y cells [2]; [11]): Significantly reduced levels | PSD95 levels (immunofluorescence) (SHSY5Y cells [2]; [11]): increased | synaptophysin levels (immunofluorescence) (SHSY5Y cells [2]; [11]): increased | Drp1 levels (immunofluorescence) (SHSY5Y cells [2]; [8]): decreased Drp1 levels were found in DDQ treated cells relative to untreated cells, but this was not significant | Drp1 levels (immunofluorescence) (SHSY5Y cells [2]; [12]): Significantly reduced levels | PSD95 levels (immunofluorescence) (SHSY5Y cells [2]; [12]): increased | synaptophysin levels (immunofluorescence) (SHSY5Y cells [2]; [12]): increased | ATP levels (SHSY5Y cells [3]; [6]): Significantly increased levels | ATP levels (SHSY5Y cells [3]; [7]): Significantly increased ATP levels | ATP levels (SHSY5Y cells [3]; [8]): Significantly increased levels | ATP levels (SHSY5Y cells [3]; [9]): Significantly increased ATP levels | Cell viability (SHSY5Y cells [4]; [6]): unchanged | Cell viability (SHSY5Y cells [4]; [8]): significantly increased | Cell viability (SHSY5Y cells [4]; [9]): Significantly increased | Cell viability (SHSY5Y cells [4]; [10]): unchanged | lipid peroxidation (4-hydroxy-nonenol) levels (SHSY5Y cells [5]; Aβ + DDQ (Aβ1-42 6 hrs, then DDQ 24 hrs) vs cells incubated with Aβ alone): significantly reduced levels | lipid peroxidation (4-hydroxy-nonenol) levels (SHSY5Y cells [5]; [8]): significantly decreased levels | lipid peroxidation (4-hydroxy-nonenol) levels (SHSY5Y cells [5]; DDQ + Aβ (DDQ 24 hrs, then Aβ1-42 6 hrs) vs cells incubated with Aβ alone): significantly reduced levels | Aβ40 levels (mutant APPSwe/Ind cells): significantly increased | Aβ42 levels (mutant APPSwe/Ind cells): significantly decreased levels | GTPase-Drp1 activity (GTPase-Drp1; [6]): Significantly increased | GTPase-Drp1 activity (GTPase-Drp1; Aβ + DDQ (Aβ1-42 6 hrs, then DDQ 24 hrs) vs cells incubated with Aβ): reduced | GTPase-Drp1 activity (GTPase-Drp1; [8]): decreased levels | GTPase-Drp1 activity (GTPase-Drp1; DDQ + Aβ (DDQ 24 hrs, then Aβ1-42 6 hrs) vs cells incubated with Aβ): reduced
